#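 Protocol summary: plate cells (96-well), add compound at 5 concentrations, incubate 48 h, interpolate endpoints linearly. GI50 marks 50% less growth. TGI marks complete inhibition of growth.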
# Tested on: OVCAR-3 ovarian
# Assay: DTP human tumour cell line panel, 48 h
SMILES,GI50,TGI
CC(C)n1nc(-c2cc3cc(O)ccc3[nH]2)c2c(N)ncnc21,0.22 µM,2.75 µM
CCCCC(O)(c1ccc(Cl)cc1)C(CN1CCOCC1)c1ccc(Cl)cc1 (stereo unspecified),14.5 µM,28 µM
NCC1Nc2ccccc2[C@@H](O)C1O (stereo partly specified),,> 100 µM
Cc1cccc(N2CCN(C(=S)c3ccc4c(c3)OCO4)CC2)c1,0.359 µM,2.87 µM
O=C(N/N=C/c1ccc(Cl)cc1)c1ccc(C(F)(F)F)nc1Nc1cccc(C(F)(F)F)c1,1.11 µM,6.9 µM
COc1cc2ncnc(Nc3ccc(C)c(O)c3)c2cc1OC,8.94 µM,> 25 µM
COC(=O)C1=CNC=C(C(=O)OC)C1C1=CC(=O)C(C)=CC1=O,5.64 µM,22.1 µM
Cc1cc(S(=O)(=O)Nc2nnc(-c3ccccc3)c(-c3ccccc3)n2)c(SCC(N)=O)cc1Cl,19.6 µM,42.8 µM
COc1ccc(/C=C/c2ccnc3ccccc23)c(OC)c1,,> 10 µM
Cc1ccc(C(=O)CN(/C=C/C(=O)C(F)(F)F)c2ccc(S(N)(=O)=O)cc2)cc1,42.6 µM,> 100 µM
NS(=O)(=O)c1ccc(NC2(C(=O)O)CCCC2)cc1,,> 100 µM
O=C(O)C1OC(n2cc(F)c(=O)[nH]c2=O)CC1O (stereo unspecified),,> 100 µM
N=C1C(c2nc3ccccc3s2)=C(O)CN1c1cc(C(F)(F)F)ccc1Cl,4.47 µM,40.4 µM
CC(=O)CSCc1ccccn1,,> 100 µM
COc1ccccc1CNCCCN1C(=O)c2ccc3c4c(ccc(c24)C1=O)C(=O)N(CCCOCCCCOCCCN)C3=O,0.297 µM,0.754 µM
CCOC(=O)[C@@H](N)CCC(=O)N[C@@H](CSCc1ccccc1)C(=O)N[C@@H](C(=O)OCC)c1ccccc1,16.7 µM,30.7 µM
COc1ccc(Nc2c3ccccc3nc3occc23)cc1,0.366 µM,4.2 µM
CC(=O)/C(C)=N/NC(=O)c1ccccc1O,> 10 µM,> 100 µM
COc1cc(/C=C/c2cc(/C=C/c3ccc(O)c(OC)c3)n(C(=O)Nc3ccc(F)c(Cl)c3)n2)ccc1O,0.263 µM,0.837 µM
CCCCCCCC/C=C/CCCCCCCC(=O)OC[C@H]1O[C@@H](n2ccc(N)nc2=O)C(F)(F)[C@@H]1O,8.86 µM,> 100 µM
NS(=O)(=O)c1ccc(N=Nc2c(O)[nH]c3ccc(-c4cnco4)cc23)cc1,> 25 µM,> 25 µM
Clc1ccc(C2=Nn3c(COc4ccccc4Cl)nnc3SC2)c(Cl)c1,12.9 µM,29.2 µM
COc1cc2c3c(n(CCCNC(=O)OCC4c5ccccc5-c5ccccc54)c(=O)c2cc1OC)-c1cc2c(cc1/C3=C\CCNC(=O)OCC1c3ccccc3-c3ccccc31)OCO2,> 44.6 µM,> 50 µM
N#C/C(=C1C=C(Br)/C(=N\O)C=C\1Cl)c1cccc2ccccc12,,9.39 µM
COC(=O)[C@@H](C)CNS(=O)(=O)N(c1cc(C(F)(F)F)cc(C(F)(F)F)c1)C1CCN(Cc2ccc(F)cc2)CC1,10.4 µM,23 µM
C=C1C(=O)O[C@@H]2/C=C(\C)CC/C=C(/COC(C)=O)C[C@@H](OC(C)=O)[C@@H]12,,14.2 µM
COC(=O)[C@H](C)NC(=O)NC(=O)NC(=O)CI,12.3 µM,25.2 µM

# Tested on: PC-3 prostate
# Assay: DTP human tumour cell line panel, 48 h
SMILES,GI50,TGI
CC(C)n1nc(-c2cc3cc(O)ccc3[nH]2)c2c(N)ncnc21,0.086 µM,6.45 µM
CCCCC(O)(c1ccc(Cl)cc1)C(CN1CCOCC1)c1ccc(Cl)cc1 (stereo unspecified),7.68 µM,23.9 µM
NCC1Nc2ccccc2[C@@H](O)C1O (stereo partly specified),,> 100 µM
Cc1cccc(N2CCN(C(=S)c3ccc4c(c3)OCO4)CC2)c1,4.14 µM,> 100 µM
O=C(N/N=C/c1ccc(Cl)cc1)c1ccc(C(F)(F)F)nc1Nc1cccc(C(F)(F)F)c1,2.05 µM,8.03 µM
COc1cc2ncnc(Nc3ccc(C)c(O)c3)c2cc1OC,> 19.8 µM,> 25 µM
COC(=O)C1=CNC=C(C(=O)OC)C1C1=CC(=O)C(C)=CC1=O,16.3 µM,30.5 µM
Cc1cc(S(=O)(=O)Nc2nnc(-c3ccccc3)c(-c3ccccc3)n2)c(SCC(N)=O)cc1Cl,94.8 µM,> 100 µM
COc1ccc(/C=C/c2ccnc3ccccc23)c(OC)c1,,> 10 µM
Cc1ccc(C(=O)CN(/C=C/C(=O)C(F)(F)F)c2ccc(S(N)(=O)=O)cc2)cc1,59.8 µM,> 100 µM
NS(=O)(=O)c1ccc(NC2(C(=O)O)CCCC2)cc1,,> 100 µM
O=C(O)C1OC(n2cc(F)c(=O)[nH]c2=O)CC1O (stereo unspecified),,> 100 µM
N=C1C(c2nc3ccccc3s2)=C(O)CN1c1cc(C(F)(F)F)ccc1Cl,5.82 µM,49.9 µM
CC(=O)CSCc1ccccn1,,> 100 µM
COc1ccccc1CNCCCN1C(=O)c2ccc3c4c(ccc(c24)C1=O)C(=O)N(CCCOCCCCOCCCN)C3=O,1.45 µM,5.17 µM
CCOC(=O)[C@@H](N)CCC(=O)N[C@@H](CSCc1ccccc1)C(=O)N[C@@H](C(=O)OCC)c1ccccc1,16.5 µM,37.3 µM
COc1ccc(Nc2c3ccccc3nc3occc23)cc1,3.25 µM,> 39.5 µM
CC(=O)/C(C)=N/NC(=O)c1ccccc1O,,> 100 µM
COc1cc(/C=C/c2cc(/C=C/c3ccc(O)c(OC)c3)n(C(=O)Nc3ccc(F)c(Cl)c3)n2)ccc1O,0.365 µM,6.58 µM
CCCCCCCC/C=C/CCCCCCCC(=O)OC[C@H]1O[C@@H](n2ccc(N)nc2=O)C(F)(F)[C@@H]1O,0.752 µM,> 100 µM
NS(=O)(=O)c1ccc(N=Nc2c(O)[nH]c3ccc(-c4cnco4)cc23)cc1,> 25 µM,> 25 µM
Clc1ccc(C2=Nn3c(COc4ccccc4Cl)nnc3SC2)c(Cl)c1,37.2 µM,> 100 µM
COc1cc2c3c(n(CCCNC(=O)OCC4c5ccccc5-c5ccccc54)c(=O)c2cc1OC)-c1cc2c(cc1/C3=C\CCNC(=O)OCC1c3ccccc3-c3ccccc31)OCO2,> 50 µM,> 50 µM
N#C/C(=C1C=C(Br)/C(=N\O)C=C\1Cl)c1cccc2ccccc12,,10.9 µM
COC(=O)[C@@H](C)CNS(=O)(=O)N(c1cc(C(F)(F)F)cc(C(F)(F)F)c1)C1CCN(Cc2ccc(F)cc2)CC1,7.61 µM,20.8 µM
C=C1C(=O)O[C@@H]2/C=C(\C)CC/C=C(/COC(C)=O)C[C@@H](OC(C)=O)[C@@H]12,,36.4 µM
COC(=O)[C@H](C)NC(=O)NC(=O)NC(=O)CI,17.1 µM,32.2 µM

# Tested on: SK-MEL-28 melanoma
# Assay: DTP human tumour cell line panel, 48 h
SMILES,GI50,TGI
CC(C)n1nc(-c2cc3cc(O)ccc3[nH]2)c2c(N)ncnc21,0.12 µM,1.67 µM
CCCCC(O)(c1ccc(Cl)cc1)C(CN1CCOCC1)c1ccc(Cl)cc1 (stereo unspecified),15.9 µM,33.9 µM
NCC1Nc2ccccc2[C@@H](O)C1O (stereo partly specified),,> 100 µM
Cc1cccc(N2CCN(C(=S)c3ccc4c(c3)OCO4)CC2)c1,2.19 µM,> 100 µM
O=C(N/N=C/c1ccc(Cl)cc1)c1ccc(C(F)(F)F)nc1Nc1cccc(C(F)(F)F)c1,2.54 µM,10.3 µM
COc1cc2ncnc(Nc3ccc(C)c(O)c3)c2cc1OC,> 25 µM,> 25 µM
COC(=O)C1=CNC=C(C(=O)OC)C1C1=CC(=O)C(C)=CC1=O,24.3 µM,> 59.6 µM
Cc1cc(S(=O)(=O)Nc2nnc(-c3ccccc3)c(-c3ccccc3)n2)c(SCC(N)=O)cc1Cl,72.8 µM,> 100 µM
COc1ccc(/C=C/c2ccnc3ccccc23)c(OC)c1,,> 10 µM
Cc1ccc(C(=O)CN(/C=C/C(=O)C(F)(F)F)c2ccc(S(N)(=O)=O)cc2)cc1,> 100 µM,> 100 µM
NS(=O)(=O)c1ccc(NC2(C(=O)O)CCCC2)cc1,,> 100 µM
O=C(O)C1OC(n2cc(F)c(=O)[nH]c2=O)CC1O (stereo unspecified),,> 63.1 µM
N=C1C(c2nc3ccccc3s2)=C(O)CN1c1cc(C(F)(F)F)ccc1Cl,69 µM,> 100 µM
CC(=O)CSCc1ccccn1,,> 100 µM

# Reference: PubChem BioAssay (NCI)
